These are literature values, as cited in patent US20080254117A1, “PROCESS FOR PREPARING PRAMIPEXOLE DIHYDROCHLORIDE TABLETS” (priority 2007, published 2008).

Counter-ions that a name gives are not always drawn.

Test in data set [1]: not given
The source holds these as a separate data set.

Regarding `CCCN[C@H]1CCc2nc(N)sc2C1` [Pramipexole dihydrochloride monohydrate, pramipexole dihydrochloride monohydrate], under “between pH 2 and pH 7.4”, the “solubility in buffer media” value is on record as “above 10 mg/mL”. Also, where the note is “water”, the Water solubility result is “more than 20 mg/mL”.
For the compound `CCCN[C@H]1CCc2nc(N)sc2C1` [Pramipexole, (S)-2-amino-4,5,6,7-tetrahydro-6-(propylamino)benzothiazole], the “light sensitivity in solution” value in data set [1] (in solution) is reported as “light sensitive”. Besides, in data set [1] (solid state), the “stability in the solid state” value is reported as “very stable in the solid state”.
